Reference: patent US6737383B1, “Herbicidal oxadiazolidines” (priority 1999, dated 2004)

Tests used:
[1] = system: surinam grass; experiment: Test B pre/postemergence surinam grass; format: in vivo, Brachiaria decumbens; details: Preemergence
In short: (§1)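 Test chemicals in a non-phytotoxic solvent mixture with surfactant were sprayed preemergence onto planted seeds and postemergence onto plants 2 to 18 cm tall (1- to 4-leaf stage). After twelve to sixteen days in a greenhouse, injury was visually rated against untreated controls from 0 (no effect) to 10 (complete control).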

[2] = system: pigweed; experiment: Test B pre/postemergence pigweed; format: in vivo, Amaranthus retroflexus; details: Preemergence, scale of 0 to 10 where 0 is no effect and 10 is complete control
In short: as §1

[3] = system: purple nutsedge; experiment: Test B pre/postemergence purple nutsedge; format: in vivo, Cyperus rotundus; details: Preemergence, scale of 0 to 10 where 0 is no effect and 10 is complete control
In short: as §1

[4] = system: giant foxtail; experiment: Test B pre/postemergence giant foxtail; format: in vivo, Setaria faberii; details: Preemergence, scale of 0 to 10 where 0 is no effect and 10 is complete control
In short: as §1

[5] = system: crabgrass; experiment: Test B pre/postemergence crabgrass; format: in vivo, Digitaria sanguinalis; details: Preemergence
In short: as §1

[6] = system: cocklebur; experiment: Test B pre/postemergence cocklebur; format: in vivo, Xanthium strumarium; details: Preemergence
In short: as §1

[7] = system: wild oat; experiment: Test B pre/postemergence wild oat; format: in vivo, Avena fatua; details: Preemergence, scale of 0 to 10 where 0 is no effect and 10 is complete control
In short: as §1

[8] = system: velvetleaf; experiment: Test B pre/postemergence velvetleaf; format: in vivo, Abutilon theophrasti; details: Preemergence, scale of 0 to 10 where 0 is no effect and 10 is complete control
In short: as §1

[9] = system: wheat; experiment: Test B pre/postemergence wheat; format: in vivo, Triticum aestivum; details: Preemergence, scale of 0 to 10 where 0 is no effect and 10 is complete control
In short: as §1

[10] = system: sugar beet; experiment: Test B pre/postemergence sugar beet; format: in vivo, Beta vulgaris; details: Preemergence, scale of 0 to 10 where 0 is no effect and 10 is complete control
In short: as §1

[11] = system: corn; experiment: Test B pre/postemergence corn; format: in vivo, Zea mays; details: Preemergence
In short: as §1

[12] = system: bedstraw; experiment: Test B pre/postemergence bedstraw; format: in vivo, Galium aparine; details: Preemergence
In short: as §1

[13] = system: rape; experiment: Test B pre/postemergence rape; format: in vivo, Brassica napus; details: Preemergence, scale of 0 to 10 where 0 is no effect and 10 is complete control
In short: as §1

[14] = system: soybean; experiment: Test B pre/postemergence soybean; format: in vivo, Glycine max; details: Preemergence, scale of 0 to 10 where 0 is no effect and 10 is complete control
In short: as §1

[15] = system: blackgrass; experiment: Test B pre/postemergence blackgrass; format: in vivo, Alopecurus myosuroides; details: Preemergence
In short: as §1

[16] = system: morningglory; experiment: Test B pre/postemergence morningglory; format: in vivo, Ipomoea hederacea; details: Preemergence, scale of 0 to 10 where 0 is no effect and 10 is complete control
In short: as §1

[17] = Rate 62 g/ha, scale of 0 to 10 where 0 is no effect and 10 is complete control
[18] = Rate 125 g/ha, scale of 0 to 10 where 0 is no effect and 10 is complete control
[19] = Rate 250 g/ha, scale 0 to 10 (0 no effect, 10 complete control)
[20] = Rate 500 g/ha, scale of 0 to 10 where 0 is no effect and 10 is complete control

CCn1ncc(Cn2c(=O)on(C(=O)N(c3ccccc3)C(C)C)c2=O)c1Cl [Compound 683]
B. signalgrass plant response rating [1, 17]: 0 | Plant response rating, B. signalgrass [1, 18]: 0 | Plant response rating, B. signalgrass [1, 19]: 4 | Plant response rating, B. signalgrass [1, 20]: 9 | Redroot pigweed plant response rating ([2]; Rate 62 g/ha): 0 | Plant response rating, Redroot pigweed ([2]; Rate 125 g/ha): 2 | Plant response rating, Redroot pigweed ([2]; Rate 500 g/ha): 6 | Nutsedge plant response rating ([3]; Rate 62 g/ha): 0 | Plant response rating, Nutsedge ([3]; Rate 125 g/ha): 0 | Plant response rating, Nutsedge ([3]; Rate 500 g/ha): 0 | Giant foxtail plant response rating ([4]; Rate 62 g/ha): 8 | Plant response rating, Giant foxtail ([4]; Rate 125 g/ha): 9 | Plant response rating, Giant foxtail ([4]; Rate 500 g/ha): 10 | Crabgrass plant response rating [5, 17]: 6 | Plant response rating, Crabgrass [5, 18]: 8 | Plant response rating, Crabgrass [5, 19]: 9 | Plant response rating, Crabgrass [5, 20]: 10 | Cocklebur plant response rating [6, 17]: 0 | Plant response rating, Cocklebur [6, 18]: 0 | Plant response rating, Cocklebur [6, 19]: 0 | Plant response rating, Cocklebur [6, 20]: 0 | Wild oats plant response rating ([7]; Rate 62 g/ha): 0 | Plant response rating, Wild oats ([7]; Rate 125 g/ha): 0 | Plant response rating, Wild oats ([7]; Rate 500 g/ha): 8 | Velvetleaf plant response rating ([8]; Rate 62 g/ha): 0 | Plant response rating, Velvetleaf ([8]; Rate 125 g/ha): 0 | Plant response rating, Velvetleaf ([8]; Rate 500 g/ha): 0 | Wheat plant response rating ([9]; Rate 62 g/ha): 0 | Plant response rating, Wheat ([9]; Rate 125 g/ha): 0 | Plant response rating, Wheat ([9]; Rate 500 g/ha): 0 | Sugarbeets plant response rating ([10]; Rate 62 g/ha): 0 | Plant response rating, Sugarbeets ([10]; Rate 125 g/ha): 0 | Plant response rating, Sugarbeets ([10]; Rate 500 g/ha): 0 | Corn plant response rating [11, 17]: 0 | Plant response rating, Corn [11, 18]: 0 | Plant response rating, Corn [11, 19]: 0 | Plant response rating, Corn [11, 20]: 3 | Bedstraw plant response rating [12, 17]: 0 | Plant response rating, Bedstraw [12, 18]: 0 | Plant response rating, Bedstraw [12, 19]: 0 | Plant response rating, Bedstraw [12, 20]: 0 | Rape plant response rating ([13]; Rate 62 g/ha): 0 | Plant response rating, Rape ([13]; Rate 125 g/ha): 0 | Plant response rating, Rape ([13]; Rate 500 g/ha): 0 | Soybean plant response rating ([14]; Rate 62 g/ha): 0 | Plant response rating, Soybean ([14]; Rate 125 g/ha): 0 | Plant response rating, Soybean ([14]; Rate 500 g/ha): 0 | Blackgrass plant response rating [15, 17]: 1 | Plant response rating, Blackgrass [15, 18]: 3 | Plant response rating, Blackgrass [15, 19]: 7 | Plant response rating, Blackgrass [15, 20]: 9 | Morningglory plant response rating ([16]; Rate 62 g/ha): 0 | Plant response rating, Morningglory ([16]; Rate 125 g/ha): 0 | Plant response rating, Morningglory ([16]; Rate 500 g/ha): 2
